The target in this assay is T1, TR-HSC70 (aa 4-381) (Homo sapiens, UniProt P11142).
T1 construct: HSC70-NBD (residues 4 to 381); made in house
The experiment in a line: Fluorescence polarisation probe KD determination with truncated HSC70. The format is binding. The procedure: To determine the binding affinity of bisaryl FP-probe 11 for HSP72, increasing concentrations of the protein were titrated against a fixed concentration (10 nM) of the FP-probe. […] We speculated that this decrease in apparent KD was due to the slow hydrolysis of the ATP-probe to ADP-ATTO-488 + Pi. Although HSP72 has low intrinsic ATPase activity,[8] the high enzyme concentration could catalyse hydrolysis over the time-frame of the assay, with the initial KD values reflective of the known modest affinity of ATP for HSP70, whilst the final KD value was consistent with the higher affinity ADP ligand.[14] […]
TRIS Tris(hydroxymethyl)aminomethane
General Information: Unless otherwise stated the aqueous assay buffer contained 50 mM TRIS base pH 7.4, 150 mM NaCl, 6 mM MgCl2, 1 mM DTT, 0.1% (wt/wt) CHAPS. The assay was conducted using 384 Plus F ProxiPlates (PerkinElmer) with a final assay volume of 10 μL. Plates were centrifuged at 1000 rpm for 1 minute prior to incubation and read using an 2103 Envision Multilable Plate Reader. Excitation and emission wavelengths used for green probes were 480 nm and 535 nm, respectively.
Fluorescence polarisation was measured in units of millipolarization (mP). […] Data were plotted and analysed using GraphPad Prism 6, graphical data represents the mean ± standard error of the mean for a single representative experiment. […]

The term Kd denotes the constant that tells how readily two partners part at equilibrium. Usually pKD stands for the KD on a negative log10 scale, so that one unit is a factor of ten.

T1 sequence (P11142 4-381): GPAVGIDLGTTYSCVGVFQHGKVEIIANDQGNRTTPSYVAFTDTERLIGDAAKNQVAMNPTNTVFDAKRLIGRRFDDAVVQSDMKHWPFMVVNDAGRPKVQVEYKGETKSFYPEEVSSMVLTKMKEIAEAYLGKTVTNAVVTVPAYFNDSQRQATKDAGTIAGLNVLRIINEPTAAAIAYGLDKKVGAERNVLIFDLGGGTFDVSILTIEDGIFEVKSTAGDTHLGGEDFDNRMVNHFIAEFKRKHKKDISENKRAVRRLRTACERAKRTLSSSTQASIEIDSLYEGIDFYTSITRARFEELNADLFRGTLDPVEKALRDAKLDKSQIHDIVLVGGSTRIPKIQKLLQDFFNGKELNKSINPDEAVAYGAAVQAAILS

As to `CN(CCCC(=O)NCCCCCCNc1ncnc2c1nc(NCc1ccc3ncccc3c1)n2[C@@H]1O[C@H](COCc2ccc(C(F)(F)F)cc2)[C@@H](O)[C@H]1O)C(=O)c1ccccc1-c1c2ccc(=N)c(S(=O)(=O)O)c-2oc2c(S(=O)(=O)O)c(N)ccc12` [compound 11], the Kd (TR-HSC70) amounted to 117 nM. In addition, for the setting “TR-HSC70, n = 2”, the negative-log KD (pKD) is listed as 6.93.

The values are drawn from publication PMC5708526, “Targeting secondary protein complexes in drug discovery: studying the druggability and chemical biology of the HSP70/BAG1 complex” (Chemical Communications (Cambridge, England), 2017).
